The source made the active and inactive calls. The rule behind the calls is not given here.
Tests used:
[1] = target: E3 ubiquitin-protein ligase XIAP/Bromodomain-containing protein 4 (Homo sapiens) (UniProt P98170+O60885); test: Protac activity at IAP/BRD4 in human SK-MEL-28 cells assessed as induction of BRD4 degradation at 0.1 to 10 uM measured after 24 hrs by Western blotting analysis; format: cell-based; conditions: dose 0.1-10 µM
[2] = target: von Hippel-Lindau disease tumor suppressor/Bromodomain-containing protein 4 (Homo sapiens) (UniProt O60885+P40337); test: Protac activity at VHL/BRD4 in human MCF7 cells assessed as induction of BRD4 degradation at 10 uM measured after 24 hrs by Western blotting analysis; format: cell-based
von Hippel-Lindau disease tumor suppressor/Bromodomain-containing protein 4 (Homo sapiens), sequence (P40337 whole entry, looked up, other chains not shown): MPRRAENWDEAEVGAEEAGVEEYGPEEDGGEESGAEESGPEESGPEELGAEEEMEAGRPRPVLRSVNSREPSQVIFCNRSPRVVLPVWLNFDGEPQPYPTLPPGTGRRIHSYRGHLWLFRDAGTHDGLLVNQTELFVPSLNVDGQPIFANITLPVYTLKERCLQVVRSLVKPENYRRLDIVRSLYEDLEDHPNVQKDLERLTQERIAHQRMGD

E3 ubiquitin-protein ligase XIAP/Bromodomain-containing protein 4 (Homo sapiens), sequence (P98170 whole entry, looked up, other chains not shown): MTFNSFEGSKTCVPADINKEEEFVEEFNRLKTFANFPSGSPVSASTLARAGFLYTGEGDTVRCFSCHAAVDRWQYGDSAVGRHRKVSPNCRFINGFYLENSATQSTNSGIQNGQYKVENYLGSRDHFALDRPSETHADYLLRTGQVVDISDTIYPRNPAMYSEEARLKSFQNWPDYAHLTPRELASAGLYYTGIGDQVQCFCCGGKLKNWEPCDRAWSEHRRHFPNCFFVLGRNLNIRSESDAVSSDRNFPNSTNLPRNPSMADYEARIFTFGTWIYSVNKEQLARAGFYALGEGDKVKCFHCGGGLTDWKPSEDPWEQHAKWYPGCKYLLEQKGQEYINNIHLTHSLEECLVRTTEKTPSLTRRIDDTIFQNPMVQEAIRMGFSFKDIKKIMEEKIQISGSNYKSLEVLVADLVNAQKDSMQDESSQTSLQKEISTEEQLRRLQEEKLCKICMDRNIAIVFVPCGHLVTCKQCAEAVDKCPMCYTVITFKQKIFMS

Activity [1]	Activity [2]	SMILES
Active		CN[C@@H](C)C(=O)N[C@H](C(=O)N1CCC[C@H]1c1nc(C(=O)c2cccc(OCC(=O)NCCCNC(=O)C[C@@H]3N=C(c4ccc(Cl)cc4)c4c(sc(C)c4C)-n4c(C)nnc43)c2)cs1)C1CCCCC1
	inactive	CC1=C(C)C2C(c3ccc(Cl)cc3)=N[C@@H](CC(=O)NCCOCCOCCNC(=O)CCCC(=O)N[C@H](C(=O)N3C[C@H](O)C[C@H]3C(=O)NCc3ccc(-c4scnc4C)cc3)C(C)(C)C)c3nnc(C)n3C2S1 (some centres undefined)
Active		CN[C@@H](C)C(=O)N[C@H](C(=O)N1CCC[C@H]1c1nc(C(=O)c2cccc(OCC(=O)NCCOCCOCCOCCNC(=O)C[C@@H]3N=C(c4ccc(Cl)cc4)c4c(sc(C)c4C)-n4c(C)nnc43)c2)cs1)C1CCCCC1
	Active	CC1=C(C)C2C(c3ccc(Cl)cc3)=N[C@@H](CC(=O)NCCCNC(=O)CCCC(=O)N[C@H](C(=O)N3C[C@H](O)C[C@H]3C(=O)NCc3ccc(-c4scnc4C)cc3)C(C)(C)C)c3nnc(C)n3C2S1 (some centres undefined)
